Where a name gives a salt, the structure may show the parent alone.
Molecular target: T1, 5-HT3 receptor (Rattus norvegicus, UniProt P35563)
T1 construct: from tissue; host or cells: whole living rat (male Wistar, urethane-anesthetized); endogenous receptor
T1 sequence (P35563 24-483): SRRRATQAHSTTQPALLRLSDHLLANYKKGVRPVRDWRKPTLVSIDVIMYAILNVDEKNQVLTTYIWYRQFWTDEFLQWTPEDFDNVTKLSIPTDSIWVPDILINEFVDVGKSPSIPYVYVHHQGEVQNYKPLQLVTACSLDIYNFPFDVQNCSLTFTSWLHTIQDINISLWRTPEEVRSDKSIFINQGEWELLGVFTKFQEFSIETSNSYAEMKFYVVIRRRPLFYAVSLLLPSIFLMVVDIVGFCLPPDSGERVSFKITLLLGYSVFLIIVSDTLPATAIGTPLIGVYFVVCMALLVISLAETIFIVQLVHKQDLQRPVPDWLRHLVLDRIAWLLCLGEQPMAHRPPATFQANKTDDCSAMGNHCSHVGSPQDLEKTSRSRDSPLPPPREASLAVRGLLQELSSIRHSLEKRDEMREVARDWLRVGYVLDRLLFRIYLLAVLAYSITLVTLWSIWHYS
Experiment: Inhibitory effect on the Bezold-Jarish's reflex induced in anesthetized rats with 5-HT (5HT3 receptor antagonistic effect)
Format: in vivo, rat (male Wister strain)
Conditions: iv, i.v. test compound, 5-HT 8 μg/kg i.v., urethane-anesthetized male Wister rats, dose giving 50% inhibition, read-out: B-J Reflex Inhibition (ID50)
Experimental: 1) 5HT3 Receptor Antagonistic Effect
The antagonistic activity of the compounds of the invention to 5-HT3 receptor was evaluated as to the inhibitory effect on the Bezold-Jarish's reflex induced in anesthetized rats with 5-HT as follows.
Male Wister strain rats (300-400 g weight) were anesthetized by peritoneal injection of urethane (1.25 g/kg) and the heart rate was monitored from an electrocardiograph. Rats were intravenously injected with physiological saline (0.5 ml/kg) and 5-HT (8 μg/kg) solution (0.5 ml/kg) in physiological saline at five minutes interval and the change in the heart rate was recorded (A). Another group of rats were intravenously injected with a test compound and 5-HT solution in the same manner as the above at five minutes interval and the change in the heart rate was recorded (B). The percent inhibition of 5-HT-induced Bezold-Jarish's reflex was calculated as follows.
Inhibition (%)=(1-B/A)×100
In the Table, ID50 is a dose of a compound (I) of the invention which gives a 50% inhibition. The compound number in Table 4 correspond to those in Tables 1-3.

SMILES | ED50 [µg/kg]
CCn1nc(C(=O)NC2CC3CCC(C2)N3C)c(=O)c2ccccc21 (stereo not drawn) [Compound 76, N-(endo-8-methyl-8-azabicyclo[3.2.1]oct-3yl)-1-ethyl-1,4-dihydro-4-oxocinnoline-3-carboxamide hydrochloride] | 0.3
CCCn1nc(C(=O)NC2CC3CCC(C2)N3C)c(=O)c2ccccc21 (stereo not drawn) [Compound 86, N-(endo-8-methyl-8-azabicyclo[3.2.1]oct-3-yl)-1-propyl-1,4-dihydro-4-oxocinnoline-3-carboxamide hydrochloride] | 0.15
CCCn1nc(C(=O)NC2CC3CCC(C2)N3C)c(=O)c2cccc(F)c21 (stereo not drawn) [Compound 102, 8-Fluoro-N-(endo-8-methyl-8-azabicyclo[3.2.1]oct-3-yl)-1-propyl-1,4-dihydro-4-oxocinnoline-3-carboxamide hydrochloride] | 0.2

— patent US5391549A, “Cinnoline-3-carboxylic acid derivatives” (Mitsubishi Kasei Corporation, priority 1992, dated 1995)
